According to patent US6989399B2, “Antiamyloid phenylsulfonamides: N-alkanol derivatives” (Bristol-Myers Squibb Company, priority 2002, dated 2006):

Target: T1, γ-secretase (Homo sapiens, UniProt P49768)
T1 construct: The endogenous γ-secretase present in the isolated membranes; endogenous in cells; host or cells: isolated membrane fraction of human-derived cell lines such as HeLa and H4, stably transfected with β-APP substrate
Assay: Isolated membrane γ-secretase assay, time-resolved fluorescence detection of Aβ
Assay type: biochemical
Conditions: isolated membranes, about 90 minutes at 37 degrees C; read-out: Activity (IC50), Inhibition of β-Amyloid Peptide
From the text: The detection of γ-secretase activity requires assays capable of reliable, accurate and expedient detection of γ-secretase cleavage products, particularly Aβ. An isolated membrane fraction that contains functionally active γ-secretase and β-APP substrates can generate γ-secretase cleavage products including Aβ (Roberts et al., WO 01/75435; Fechteler et al., Patent Application No. DE 99-19941039 19990828; Shearman et al., Biochemistry, 39, p. 8698–8704 (2000); Zhang et al., Biochemistry, 40, p. 5049-5055 (2001)). An isolated membrane fraction can be prepared from human derived cell lines such as HeLa and H4 which have been transfected with wild type or mutant forms of β-APP or a human alkaline phosphatase β-APP fusion construct, and stably express high levels of γ-secretase substrates. The endogenous γ-secretase present in the isolated membranes prepared at 0–4 degrees C. cleaves the β-APP substrates when the membranes are shifted from 0–4 to 37 degrees C. […] 325–327 (1992), or by a preferred method using time-resolved fluorescence of the homogeneous sample containing membranes and Aβ (Roberts et al., WO 01/75435; Shearman et al., Biochemistry, 39, p. 8698–8704 (2000)). The Aβ present in a homogeneous sample containing membranes can be detected by time-resolved fluorescence with two antibodies that recognize different epitopes of Aβ. One of the antibodies recognizes an epitope that is present in Aβ but not present in the precursor fragments; preferably the antibody binds the carboxyl terminus of Aβ generated by the γ-secretase cleavage. The second antibody binds to any other epitope present on Aβ. For example, antibodies that bind the N-terminal region (e.g., 26D6-B2-B3® SIBIA Neurosciences, La Jolla, Calif.) or bind the C-terminal end (e.g., 9S3.2® antibody, Biosolutions, Newark, Del.) of the Aβ peptide are known. The antibodies are labeled with a pair of fluorescent adducts that transfer fluorescent energy when the adducts are brought in close proximity as a result of binding to the N- and C-terminal ends or regions of Aβ. A lack of fluorescence is indicative of the absence of cleavage products, resulting from inhibition of γ-secretase. The isolated membrane assay can be used to identify candidate agents that inhibit the activity of γ-secretase cleavage and Aβ production.
A typical membrane-based assay requires 45 μg membrane protein per well in a 96- or 384-well format. Membranes in a neutral buffer are combined with the test compound and shifted from 0–4 to 37 degrees C. Test agents may typically consist of synthetic compounds, secondary metabolites from bacterial or fungal fermentation extracts, or extracts from plant or marine samples. All synthetic agents are initially screened at doses ranging from 10–100 μM or in the case of extracts at sufficient dilution to minimize cytotoxicity. Incubation of the membranes with the test agent will continue for approximately 90 minutes at which time fluorescence labeled antibodies are added to each well for Aβ quantitation. The time-resolved fluorescence detection and quantitation of Aβ is described elsewhere (Roberts et al., WO 01/75435; Shearman et al., Biochemistry, 39, p. 8698–8704 (2000)). Results are obtained by analysis of the plate in a fluorescence plate reader and comparison to the mock treated membranes and samples in which known amounts of Aβ were added to construct a standard concentration curve. A positive acting compound is one that inhibits the Aβ relative to the control sample by at least 50% at the initial tested concentration. If a compound is found to be active then a dose response experiment is performed to determine the lowest dose of compound necessary to elicit the inhibition of the production of Aβ.
The Formula I compounds were tested in the assay described above and found to be active as inhibitors of γ-secretase. […]

Row | SMILES | IC50
1 | CC(O)C[C@@H](C)N(c1cc(Cl)ccc1Cl)S(=O)(=O)c1ccc(Cl)cc1 (mixture of isomers) [Example 7] | 50 to 200 nM
2 | CC(C)C(O)[C@@H](C)N(c1cc(Cl)ccc1Cl)S(=O)(=O)c1ccc(Cl)cc1 (mixture of isomers) [Example 10] | 200 to 5000 nM
3 | CC(C)CC(O)[C@@H](C)N(c1cc(Cl)ccc1Cl)S(=O)(=O)c1ccc(Cl)cc1 (mixture of isomers) [Example 11] | 200 to 5000 nM
4 | C[C@H](C(O)C1CCCC1)N(c1cc(Cl)ccc1Cl)S(=O)(=O)c1ccc(Cl)cc1 (mixture of isomers) [Example 12] | 200 to 5000 nM
5 | C[C@H](C(O)C1CCCCC1)N(c1cc(Cl)ccc1Cl)S(=O)(=O)c1ccc(Cl)cc1 (mixture of isomers) [Example 13] | 200 to 5000 nM
6 | C[C@H](C(O)c1ccccc1)N(c1cc(Cl)ccc1Cl)S(=O)(=O)c1ccc(Cl)cc1 (mixture of isomers) [Example 14] | 200 to 5000 nM
7 | COc1ccc(C(O)[C@@H](C)N(c2cc(Cl)ccc2F)S(=O)(=O)c2ccc(Cl)cc2)cc1 (mixture of isomers) [Example 22] | 200 to 5000 nM
8 | C[C@H](C(O)CC(=O)O)N(c1cc(Cl)ccc1F)S(=O)(=O)c1ccc(Cl)cc1 (mixture of isomers) [Example 24] | 50 to 200 nM
9 | CC(C)CC(O)C[C@@H](C)N(c1cc(Cl)ccc1Cl)S(=O)(=O)c1ccc(Cl)cc1 (mixture of isomers) [Example 28] | 50 to 200 nM
10 | C=CCCC(O)C[C@@H](C)N(c1cc(Cl)ccc1Cl)S(=O)(=O)c1ccc(Cl)cc1 (mixture of isomers) [Example 29] | 50 to 200 nM
11 | C[C@H](CC(O)c1ccccc1)N(c1cc(Cl)ccc1Cl)S(=O)(=O)c1ccc(Cl)cc1 (mixture of isomers) [Example 30] | 50 to 200 nM
12 | C=CCC(O)[C@@H](C)N(c1cc(Cl)ccc1Cl)S(=O)(=O)c1ccc(Cl)cc1 (single isomer, unassigned) [Example 5A] | 50 to 200 nM
13 | C=CCC(O)[C@@H](C)N(c1cc(Cl)ccc1Cl)S(=O)(=O)c1ccc(Cl)cc1 (single isomer, unassigned) [Example 5B] | 200 to 5000 nM
14 | CCCC(O)[C@@H](C)N(c1cc(Cl)ccc1Cl)S(=O)(=O)c1ccc(Cl)cc1 (single isomer, unassigned) [Example 6A] | 50 to 200 nM
15 | CCCC(O)[C@@H](C)N(c1cc(Cl)ccc1Cl)S(=O)(=O)c1ccc(Cl)cc1 (single isomer, unassigned) [Example 6B] | 200 to 5000 nM
16 | CCCC(=O)OC(CCC)[C@@H](C)N(c1cc(Cl)ccc1F)S(=O)(=O)c1ccc(Cl)cc1 (single isomer, unassigned) [Example 8] | 50 to 200 nM
17 | CC(O)C(C)N(c1cc(Cl)ccc1Cl)S(=O)(=O)c1ccc(Cl)cc1 (single isomer, unassigned) [Example 9A] | 50 to 200 nM
18 | Cc1cc(C)c(C(O)[C@@H](C)N(c2cc(Cl)ccc2Cl)S(=O)(=O)c2ccc(Cl)cc2)c(C)c1 (single isomer, unassigned) [Example 16A] | 200 to 5000 nM
19 | CC(C(O)CCc1ccccc1)N(c1cc(Cl)ccc1Cl)S(=O)(=O)c1ccc(Cl)cc1 (single isomer, unassigned) [Example 17A] | 200 to 5000 nM
20 | CC(C(O)CCc1ccccc1)N(c1cc(Cl)ccc1Cl)S(=O)(=O)c1ccc(Cl)cc1 (single isomer, unassigned) [Example 17B] | 200 to 5000 nM
21 | C=CCCC(O)C(C)N(c1cc(Cl)ccc1Cl)S(=O)(=O)c1ccc(Cl)cc1 (single isomer, unassigned) [Example 18A] | 50 to 200 nM
22 | C=CCCC(O)C(C)N(c1cc(Cl)ccc1Cl)S(=O)(=O)c1ccc(Cl)cc1 (single isomer, unassigned) [Example 18B] | 200 to 5000 nM
23 | CC(O)C(C)N(c1cc(Cl)ccc1F)S(=O)(=O)c1ccc(Cl)cc1 (single isomer, unassigned) [Example 19A] | 50 to 200 nM
24 | C=CCCC(O)C(C)N(c1cc(Cl)ccc1F)S(=O)(=O)c1ccc(Cl)cc1 (single isomer, unassigned) [Example 20A] | 50 to 200 nM
25 | C=CCCC(O)C(C)N(c1cc(Cl)ccc1F)S(=O)(=O)c1ccc(Cl)cc1 (single isomer, unassigned) [Example 20B] | 200 to 5000 nM
26 | C#CCC(O)[C@@H](C)N(c1cc(Cl)ccc1F)S(=O)(=O)c1ccc(Cl)cc1 (single isomer, unassigned) [Example 21A] | < 50 nM
27 | C#CCC(O)[C@@H](C)N(c1cc(Cl)ccc1F)S(=O)(=O)c1ccc(Cl)cc1 (single isomer, unassigned) [Example 21B] | < 50 nM
28 | C=CCC(O)[C@@H](C)N(c1cc(Cl)ccc1F)S(=O)(=O)c1ccc(Cl)cc1 (single isomer, unassigned) [Example 23A] | < 50 nM
29 | CCCC(O)[C@@H](C)N(c1cc(Cl)ccc1F)S(=O)(=O)c1ccc(Cl)cc1 (single isomer, unassigned) [Example 27A] | < 50 nM
